The record followed here is a melting point compilation (Tetko et al.).

Usually melting point stands for the temperature of the solid-liquid transition.

`O=S(=O)(c1cccc2c1N=S=N2)N1CCNCC1` registered a melting point of 178 to 183 °C. The compound `CC1CCc2[nH]c(=O)sc2C1` (configuration not stated) came in with a melting point of 180 to 182 °C.

On to `CN1C(=O)CCC(C(=O)O)C1c1cccs1` (configuration not stated), for which the melting point is 154 to 156 °C. In the case of `NS(=O)(=O)Cc1ccc(Cl)nc1` it was 142 to 144 °C; in that of `CC(=O)N1CCN(c2ccc(CO)cc2)CC1`, 146 to 148 °C; in that of `Nc1ccc(C(=O)Nc2ccccc2)cc1`, 134 to 136 °C. Compound `Cc1cccc(-n2nc(C(C)(C)C)cc2N)c1` showed a melting point of 90 to 92 °C. In the case of `Cc1ccccc1-c1nn(-c2ccccc2)cc1C(=O)O`, the melting point lay in the range of 177 to 179 °C. Turning to `O=C(CC1(C(=O)O)CCCCC1)NC1CC1`, the melting point is 151 to 153 °C. In the case of `Cc1c(Cl)cccc1Nc1nnc(S)s1` it was 189 to 191 °C; in that of `Nc1cc(Br)cnc1Br`, 137 to 139 °C; in that of `N#Cc1nc(Cl)ccc1Cl`, 98 to 100 °C. Consider `CCOC(=O)c1ccn(-c2ccccc2N)n1`, for which the melting point lay within 79 to 81 °C. Compound `OCc1nnc(-c2ccccc2)n1-c1ccccc1` returned a melting point of 199 to 201 °C. `Cc1c(N)cccc1N1CCCC1=O` gave a melting point of 170 to 172 °C.

On to `CC(C)NC(=O)C(C)Cl` (configuration not stated), for which the melting point fell in the range of 89 to 91 °C. `Cc1ccc(/C=C/c2cc(C(=O)O)c3cc(Br)ccc3n2)cc1`: the melting point is 306 to 308 °C. The figure for `CC(C)CN(CC(C)C)C(=O)CC(=O)N(CC(C)C)CC(C)C` is 51 to 53 °C; for `Cc1ccc(-c2nn(-c3ccccc3)cc2/C=C/C(=O)O)o1` it is 238 to 240 °C; for `COc1ccc(NC(=O)NN)cc1` it is 146 to 148 °C. On to `Cc1ccc(C#N)c(N)n1`, for which the melting point lay in the range of 169 to 171 °C.

In turn, `CNc1ccc(C=O)cc1[N+](=O)[O-]` registered a melting point of 118 to 120 °C. In the case of `O=C1CCc2cc([N+](=O)[O-])ccc2N1` it was 201 to 203 °C; in that of `O=C(CCl)Nc1ccc(F)cc1Cl`, 76 to 78 °C. Take `O=S(=O)(Nc1ccccc1Br)N1CCCC1`: the melting point lay within 69 to 71 °C. `CN(C)C(C(=O)O)c1cccnc1` (configuration not stated) had a melting point of 184 to 186 °C. The figure for `Nc1cc(F)ccc1N1C(=O)C2CCCCC2C1=O` (configuration not stated) is 174 to 176 °C; for `N#Cc1cccnc1NCCO` it is 79 to 81 °C; for `COc1cc(C)ccc1OCC(=O)O` it is 118 to 120 °C.

As to `CC(C)S(=O)(=O)NCC1CCCNC1` (configuration not stated), the melting point lay in the range of 156 to 158 °C.

As to `Sc1nc(-c2cc3ccccc3o2)no1`, the melting point lay within 152 to 154 °C. Compound `Cn1cc(/C=C/C(=O)O)c(=O)n(C)c1=O` showed a melting point of 272 to 274 °C.

As for `Cc1csc(C2(N)CCCC2)n1`, the melting point is 59 to 61 °C. The figure for `Cc1cc(Cl)nc(-c2ccccn2)n1` is 70 to 72 °C; for `CCn1nc(C(C)C)cc1C(=O)O` it is 115 to 117 °C; for `CCc1ccc(NC(=O)c2nnc(CCl)s2)cc1` it is 126 to 128 °C. In the case of `COc1ccc(Cc2nnc(S)o2)cc1OC` it was 202 to 204 °C; in that of `CC(Cl)C(=O)Nc1ccc(C(F)(F)F)cc1` (configuration not stated), 130 to 132 °C. For `Cc1ccc(C#N)cc1S(=O)(=O)Cl`, the melting point fell in the range of 82 to 84 °C.

Compound `O=C(CCl)NCc1ccc(-c2ccc(Cl)cc2)o1` yielded a melting point of 213 to 218 °C. As for `COCCNC(=O)c1ccc(Cl)nc1`, the melting point was in the range of 112 to 114 °C. As for `CCOC(=O)c1sc(N)c(C#N)c1CBr`, the melting point fell in the range of 206 to 208 °C. In the case of `CN(C)S(=O)(=O)c1ccc(=O)[nH]c1` it was 212 to 216 °C; in that of `O=C(CCl)c1cc2c3c(c1)CC(=O)N3CCC2`, 159 to 161 °C. In the case of `Cc1nc(S)nc(O)c1C` it was 276 to 278 °C; in that of `Cc1cc(C(=O)O)nn1C(F)F`, 175 to 177 °C. Regarding `Oc1ccccc1CNC1CCCCC1`, the melting point fell in the range of 61 to 63 °C. The figure for `COc1cc(C(C)=O)ccc1S(C)(=O)=O` is 124 to 126 °C. The figure for `Cc1nn(-c2cncc3nnnn23)c(C)c1CC(=O)O` is 173 to 175 °C; for `CC(C)(C(=O)O)C1CCCCC1` it is 64 to 66 °C; for `CN1CC(=O)N(CC(=O)Nc2ccccc2)C1=O` it is 279 to 281 °C. The figure for `Cc1nsc(Nc2ccccc2)c1C#N` is 172 to 174 °C; for `COc1ccc(N)cc1OCC(=O)NC1CC1` it is 87 to 89 °C.

Compound `Cc1cc(NCc2ccco2)ncn1` gave a melting point of 95 to 97 °C. In the case of `Nc1nc(-c2ccccc2)cn1N`, the melting point was 258 to 260 °C. The figure for `Cn1ccnc1C(=O)c1ccc(N)cc1` is 70 to 72 °C; for `N#CCC(=O)c1c(Cl)cccc1Cl` it is 63 to 65 °C; for `CC(c1ccco1)N(C(=O)CCl)c1ccccn1` (configuration not stated) it is 87 to 89 °C.

`O=C(O)CC(O)(c1ncc[nH]1)C(F)(F)F` (configuration not stated): the melting point was 208 to 210 °C. The figure for `CS(=O)(=O)c1cccc(O)c1` is 69 to 71 °C; for `Cc1c(-c2csc(N)n2)sc2ccccc12` it is 170 to 172 °C. The figure for `Cc1cc(C(=O)O)nn1-c1cccc(Cl)c1` is 190 to 192 °C.

In the case of `Fc1cccc2c1CCCN2`, the melting point is 45 to 47 °C. `O=C(O)c1nn(-c2ccccc2F)cc1Br` came in with a melting point of 235 to 237 °C.

`NC(=O)c1ccc(N2CCC(C(=O)O)CC2)nc1` showed a melting point of 284 to 286 °C. In turn, `COc1nc(C)ccc1C(=O)O` had a melting point of 107 to 109 °C. In the case of `Cc1csc(CC(=O)NN)n1` it was 73 to 75 °C; in that of `Cn1cc(C(=O)O)c(Cl)n1`, 209 to 211 °C; in that of `CN1CCC/C1=N/S(=O)(=O)c1ccc(N)cc1`, 172 to 174 °C. In the case of `Cc1n[nH]c(C2CCCCC2)n1` it was 127 to 129 °C; in that of `N#CCc1nc(-c2ccccc2)n[nH]1`, 165 to 167 °C; in that of `CCCn1c(N)c(NCCOC)c(=O)[nH]c1=O`, 193 to 195 °C. On to `Nc1ccccc1Oc1ncc(Cl)cc1Cl`, for which the melting point lay in the range of 104 to 106 °C. The figure for `COc1cccc(C(=O)NCC(=O)O)c1` is 78 to 80 °C; for `Cc1c(C(=O)O)nnn1-c1ccccc1Cl` it is 165 to 167 °C. In turn, `O=C(O)CCN1C(=O)CCc2ccccc21` showed a melting point of 157 to 159 °C.

Consider `OCCc1ccc2ccccc2c1`, for which the melting point was in the range of 66 to 68 °C. In the case of `CCOC(=O)c1nnc2ccccc2c1N` it was 239 to 241 °C.

`CC(C)c1ccc(-c2nnn[nH]2)cc1` yielded a melting point of 186 to 188 °C. Regarding `CC(NC(=O)c1ccccc1NC(=O)CCl)c1ccccc1` (configuration not stated), the melting point fell in the range of 118 to 120 °C. As for `CCCc1c(C(=O)O)[nH]c(C)c1C(C)=O`, the melting point lay in the range of 214 to 216 °C. `Cc1cccc(C)c1NC(=O)CN1CCNCC1` yielded a melting point of 53 to 55 °C. `CC1CSC(=S)N1` (configuration not stated) yielded a melting point of 94 to 96 °C. For the compound `O=C1CC(c2ccccn2)CN1` (configuration not stated), the melting point is 79 to 81 °C.

`Cc1c(C(=O)O)nnn1-c1ccccc1` returned a melting point of 110 to 112 °C.

The compound `O=C(CCl)Nc1ccccc1Br` had a melting point of 78 to 80 °C. In the case of `O=C(Nc1cc[nH]n1)c1ccccc1` it was 161 to 163 °C; in that of `COc1ccc(-c2csc(NC(=O)C(C)Cl)n2)cc1` (configuration not stated), 124 to 126 °C. In turn, `Cc1ccc(-c2ccc(C(=O)O)c(F)c2)cc1` had a melting point of 247 to 249 °C. The figure for `Cc1cc(SC#N)cc(C)c1N` is 82 to 84 °C; for `O=C(O)C1CCN(S(=O)(=O)c2ccc3c(c2)CCCC3)CC1` it is 181 to 183 °C. The figure for `O=C(O)c1[nH]nc(-c2ccccc2)c1Br` is 260 to 262 °C. For `O=C(O)CCN1C(=O)COc2ccccc21`, the melting point lay in the range of 168 to 170 °C. In the case of `O=C(O)CSCc1ccc(Cl)cc1` it was 57 to 59 °C; in that of `CSc1cc(C(=O)O)oc1C`, 144 to 146 °C. In the case of `CNC(=O)Cc1ccccc1N`, the melting point lay in the range of 85 to 87 °C. The figure for `Cc1ccccc1-c1nnc(S)n1N` is 199 to 201 °C. In the case of `NCc1ccc(N2CCN(c3ncccn3)CC2)c(F)c1` it was 90 to 92 °C. The figure for `Cc1ccc(-c2ocnc2C(=O)O)cc1` is 193 to 195 °C; for `NC(C(=O)O)c1ccccc1C(F)(F)F` (configuration not stated) it is 282 to 284 °C; for `O=C(O)c1oc2ccccc2c1CSc1cccs1` it is 166 to 168 °C. `O=S(=O)(Cl)N1CCCC2CCCCC21` (configuration not stated) came in with a melting point of 34 to 36 °C. `O=C(O)CC1(C(=O)O)CCN(C(=O)OCc2ccccc2)C1` (configuration not stated) returned a melting point of 169 to 171 °C. `CC(Oc1cccc(Br)c1)C(=O)NN` (configuration not stated): the melting point was in the range of 113 to 115 °C. With `Cc1ccc(S(=O)(=O)NC(CC(N)=O)C(=O)O)cc1C` (configuration not stated), the melting point is 179 to 181 °C.

With `Nc1nc(-c2ccccc2F)cs1`, the melting point was in the range of 102 to 104 °C. In the case of `O=C(O)c1c(O)cc(=O)n2c1CCC2` it was 236 to 238 °C; in that of `Cc1ccc(-c2ccc(=O)[nH]n2)s1`, 231 to 233 °C. Take `COC(=O)c1c[nH]c(=O)c(C#N)c1`: the melting point lay in the range of 264 to 266 °C. The figure for `Cn1ccc(C(=O)N2CCCC(C(=O)O)C2)cc1=O` (configuration not stated) is 208 to 210 °C; for `c1cn2c(n1)NCCC2` it is 104 to 106 °C.

Compound `CC(=O)c1ccc(-c2ccc(C=O)o2)cc1` showed a melting point of 133 to 135 °C. The figure for `CN1CCN(CCC(=O)NN)CC1` is 87 to 89 °C. In the case of `Cc1ccc([N+](=O)[O-])cc1S(=O)(=O)Nc1ccccc1C(=O)O` it was 290 to 292 °C. On to `CNC(=O)c1ccnc(F)c1`, for which the melting point was 127 to 129 °C. As for `COc1ccc(-c2cc(C(=O)O)n(-c3ccccc3)n2)cc1`, the melting point was in the range of 190 to 192 °C. `O=C(CCl)Nc1c(F)cc(F)cc1Br` came in with a melting point of 132 to 134 °C. In the case of `N#Cc1cc(Br)c2cc[nH]c2c1` it was 139 to 141 °C. `c1ccc2[nH]c(C3CC3)nc2c1` registered a melting point of 232 to 234 °C. With `NCC(=O)N1CCN(c2ccccc2)CC1`, the melting point lay in the range of 69 to 71 °C. Turning to `O=C(O)c1cn(-c2ccc(C(F)(F)F)cn2)nn1`, the melting point is 134 to 136 °C. The compound `O=Cc1ccc(-c2ccc(C(F)(F)F)cc2)o1` yielded a melting point of 106 to 108 °C.
